Measured values from publication PMC3995882, “Antimicrobial and Immunomodulatory Activities of PR-39 Derived Peptides” (PLoS ONE, 2014).
In brackets after ≈: the same amount, converted by molar mass. Where a SMILES comes first, the peptide text is derived from it.

Experiments:
E. coli = assay: Colony counting assay (MBC); format: cell-based, Escherichia coli; details: 3 h 37°C, 10 mM phosphate buffer pH 7.0 with 1/1000 TSB, MBC = <100 CFU/ml; for MBC E. coli 0 mM NaCl: 2×10^6 CFU/ml, no NaCl added; for MBC E. coli 100 mM NaCl: 100 mM NaCl added
Protocol: (§1) Overnight cultures of E. coli and B. globigii were grown in TSB medium at 37°C to mid-logarithmic phase. The antimicrobial activity of the PR-39 derived peptides was tested using colony counting as described before. In short, cells were collected via centrifugation at 900×g for 10 minutes, and resuspended in 10 mM phosphate buffer, pH 7.0, containing 1/1000 TSB medium (Buffer A). Cells were further diluted to 2×10^6 CFU/ml in the same buffer. Next, 25 µl of cell suspension was mixed with an equal volume of different concentrations of peptides ranging from 0–80 µM, and incubated further for 3 hours at 37°C. Ten-fold dilutions were prepared in minimal buffer containing 1/1000 TSB medium in distilled water, and 100 µl from each dilution was spread on TSA plates (Trypton Soy Agar; Oxoid). The plates were incubated at 37°C and the number of colonies was counted 24 h later to determine the number of surviving bacteria. Minimal Bactericidal Concentration (MBC) was defined as <100 CFU/ml corresponding to the detection limit of this assay. To determine the dependence of activity of PR-39 on the energy status of the cell, E. coli was incubated 30 min at 37°C in the presence of the metabolic uncouplers 50 µM carbonyl cyanide m-chlorophenylhydrazone (CCCP), or 5 mM 2,4-dinitrophenol (DNP). Subsequently, an antimicrobial activity assay was performed as described above.

B. globigii = format: cell-based, Bacillus globigii; details: colony counting, 3 h 37°C, 10 mM phosphate buffer pH 7.0 with 1/1000 TSB, MBC = <100 CFU/ml; for MBC B. globigii 0 mM NaCl: 2×10^6 CFU/ml, no NaCl added; for MBC B. globigii +100 mM NaCl: 100 mM NaCl added
Protocol: as §1

| SMILES | MBC E. coli 0 mM NaCl (E. coli) [µM] | MBC E. coli 100 mM NaCl (E. coli) [µM] | MBC B. globigii 0 mM NaCl (B. globigii) [µM] | MBC B. globigii +100 mM NaCl (B. globigii) [µM] |
| --- | --- | --- | --- | --- |
| CC[C@H](C)[C@H](NC(=O)[C@H](CCCNC(=N)N)NC(=O)[C@@H]1CCCN1)C(=O)N1CCC[C@H]1C(=O)N1CCC[C@H]1C(=O)NCC(=O)N[C@@H](Cc1ccccc1)C(=O)N1CCC[C@H]1C(=O)N1CCC[C@H]1C(=O)N[C@@H](CCCNC(=N)N)C(=O)N[C@@H](Cc1ccccc1)C(=O)N1CCC[C@H]1C(=O)N1CCC[C@H]1C(=O)N[C@@H](CCCNC(=N)N)C(=O)N[C@@H](Cc1ccccc1)C(=O)N1CCC[C@H]1C(=O)O [PR-39(24–39)] (H-PRIPPGFPPRFPPRFP-OH) | 40 (≈ 75 µg/mL) | >40 | 40 (≈ 75 µg/mL) | >40 |
| CC(C)C[C@H](NC(=O)[C@H](Cc1ccc(O)cc1)NC(=O)[C@@H]1CCCN1C(=O)[C@@H]1CCCN1C(=O)[C@H](CCCNC(=N)N)NC(=O)[C@@H]1CCCN1C(=O)[C@H](CCCNC(=N)N)NC(=O)[C@H](CCCNC(=N)N)NC(=O)[C@@H](N)CCCNC(=N)N)C(=O)N1CCC[C@H]1C(=O)N[C@@H](CCCNC(=N)N)C(=O)N1CCC[C@H]1C(=O)N[C@@H](CCCNC(=N)N)C(=O)N1CCC[C@H]1C(=O)N1CCC[C@H]1C(=O)O [PR-39(1–15)] (H-RRRPRPPYLPRPRPP-OH) | 5 (≈ 9.56 µg/mL) | >40 | 5 (≈ 9.56 µg/mL) | >40 |
| CC[C@H](C)[C@H](NC(=O)[C@H](CCCNC(=N)N)NC(=O)[C@@H]1CCCN1C(=O)[C@@H]1CCCN1C(=O)[C@H](CC(C)C)NC(=O)[C@H](CCCNC(=N)N)NC(=O)[C@@H]1CCCN1C(=O)[C@@H]1CCCN1C(=O)[C@H](Cc1ccccc1)NC(=O)[C@H](Cc1ccccc1)NC(=O)[C@@H]1CCCN1)C(=O)N1CCC[C@H]1C(=O)N1CCC[C@H]1C(=O)NCC(=O)N[C@@H](Cc1ccccc1)C(=O)N1CCC[C@H]1C(=O)N1CCC[C@H]1C(=O)N[C@@H](CCCNC(=N)N)C(=O)N[C@@H](Cc1ccccc1)C(=O)N1CCC[C@H]1C(=O)N1CCC[C@H]1C(=O)N[C@@H](CCCNC(=N)N)C(=O)N[C@@H](Cc1ccccc1)C(=O)N1CCC[C@H]1C(=O)O [PR-39(16–39)] (H-PFFPPRLPPRIPPGFPPRFPPRFP-OH) | 10 (≈ 28.3 µg/mL) | >40 | 10 (≈ 28.3 µg/mL) | >40 |
| CC(C)C[C@H](NC(=O)[C@H](Cc1ccc(O)cc1)NC(=O)[C@@H]1CCCN1C(=O)[C@@H]1CCCN1C(=O)[C@H](CCCNC(=N)N)NC(=O)[C@@H]1CCCN1C(=O)[C@H](CCCNC(=N)N)NC(=O)[C@H](CCCNC(=N)N)NC(=O)[C@@H](N)CCCNC(=N)N)C(=O)N1CCC[C@H]1C(=O)N[C@@H](CCCNC(=N)N)C(=O)N1CCC[C@H]1C(=O)N[C@@H](CCCNC(=N)N)C(=O)N1CCC[C@H]1C(=O)N1CCC[C@H]1C(=O)N1CCC[C@H]1C(=O)N[C@@H](Cc1ccccc1)C(=O)N[C@@H](Cc1ccccc1)C(=O)O [PR-39(1–18)] (H-RRRPRPPYLPRPRPPPFF-OH) | 5 (≈ 11.5 µg/mL) | 20 (≈ 46.1 µg/mL) | 2.5 (≈ 5.76 µg/mL) | 10 (≈ 23 µg/mL) |
| CC(C)C[C@H](NC(=O)[C@H](CCCNC(=N)N)NC(=O)[C@@H]1CCCN1C(=O)[C@@H]1CCCN1C(=O)[C@H](Cc1ccccc1)NC(=O)[C@H](Cc1ccccc1)NC(=O)[C@@H]1CCCN1C(=O)[C@@H]1CCCN1C(=O)[C@@H]1CCCN1C(=O)[C@H](CCCNC(=N)N)NC(=O)[C@@H]1CCCN1C(=O)[C@H](CCCNC(=N)N)NC(=O)[C@@H]1CCCN1C(=O)[C@H](CC(C)C)NC(=O)[C@H](Cc1ccc(O)cc1)NC(=O)[C@@H]1CCCN1C(=O)[C@@H]1CCCN1C(=O)[C@H](CCCNC(=N)N)NC(=O)[C@@H]1CCCN1C(=O)[C@H](CCCNC(=N)N)NC(=O)[C@H](CCCNC(=N)N)NC(=O)[C@@H](N)CCCNC(=N)N)C(=O)O [PR-39(1–22)] (H-RRRPRPPYLPRPRPPPFFPPRL-OH) | 1.25 (≈ 3.46 µg/mL) | 2.5 (≈ 6.92 µg/mL) | 2.5 (≈ 6.92 µg/mL) | 10 (≈ 27.7 µg/mL) |
| CC[C@H](C)[C@H](NC(=O)[C@H](CCCNC(=N)N)NC(=O)[C@@H]1CCCN1C(=O)[C@@H]1CCCN1C(=O)[C@H](CC(C)C)NC(=O)[C@H](CCCNC(=N)N)NC(=O)[C@@H]1CCCN1)C(=O)N1CCC[C@H]1C(=O)N1CCC[C@H]1C(=O)NCC(=O)N[C@@H](Cc1ccccc1)C(=O)N1CCC[C@H]1C(=O)N1CCC[C@H]1C(=O)N[C@@H](CCCNC(=N)N)C(=O)N[C@@H](Cc1ccccc1)C(=O)N1CCC[C@H]1C(=O)N1CCC[C@H]1C(=O)N[C@@H](CCCNC(=N)N)C(=O)N[C@@H](Cc1ccccc1)C(=O)N1CCC[C@H]1C(=O)O [PR-39(20–39)] (H-PRLPPRIPPGFPPRFPPRFP-OH) | 5 (≈ 11.7 µg/mL) | >40 | 20 (≈ 46.8 µg/mL) | >40 |
| CC[C@H](C)[C@H](NC(=O)[C@H](CCCNC(=N)N)NC(=O)[C@@H]1CCCN1C(=O)[C@@H]1CCCN1C(=O)[C@H](CC(C)C)NC(=O)[C@H](CCCNC(=N)N)NC(=O)[C@@H]1CCCN1C(=O)[C@@H]1CCCN1C(=O)[C@H](Cc1ccccc1)NC(=O)[C@H](Cc1ccccc1)NC(=O)[C@@H]1CCCN1C(=O)[C@@H]1CCCN1C(=O)[C@@H]1CCCN1C(=O)[C@H](CCCNC(=N)N)NC(=O)[C@@H]1CCCN1C(=O)[C@H](CCCNC(=N)N)NC(=O)[C@@H]1CCCN1C(=O)[C@H](CC(C)C)NC(=O)[C@H](Cc1ccc(O)cc1)NC(=O)[C@@H]1CCCN1C(=O)[C@@H]1CCCN1C(=O)[C@H](CCCNC(=N)N)NC(=O)[C@@H]1CCCN1C(=O)[C@H](CCCNC(=N)N)NC(=O)[C@H](CCCNC(=N)N)NC(=O)[C@@H](N)CCCNC(=N)N)C(=O)O [PR-39(1–26)] (H-RRRPRPPYLPRPRPPPFFPPRLPPRI-OH) | 2.5 (≈ 8.07 µg/mL) | 1.25 (≈ 4.04 µg/mL) | 5 (≈ 16.1 µg/mL) | 5 (≈ 16.1 µg/mL) |
